Starred links: 1 amine or outer side, 2 acyl side, 3 side chain; linkers in the order of their positions; H or OH if unused. Positions of bridges follow the written chain, without caps; N, C: chain ends. Non-standard residues stand in square brackets, D forms with d. Residues, ends and D or L forms follow the SMILES beside them. Chains are numbered I, II in the order given. Actinocin(9to1) = Cc1c2oc3c(C)ccc(C(=O)[*:1])c3nc-2c(C(=O)[*:2])c(N)c1=O; NMeV = CN[C@H](C(=O)O)C(C)C; Sar = CNCC(=O)O
Tested on: Hepatotoxicity
Experiment: Human drug-induced liver injury (DILI) modelling dataset from Ekins et al

| Structure (SMILES) | Hepatotoxicity | Hepatotoxicity (Liver) |
| --- | --- | --- |
| CN(C)CCn1nnnc1SCC1=C(C(=O)O)N2C(=O)[C@@H](NC(=O)Cc3csc(N)n3)[C@H]2SC1.Cl.Cl [CEFOTIAM HYDROCHLORIDE] | DILI positive (test set) | – |
| CO[C@@]1(NC(=O)Cc2cccs2)C(=O)N2C(C(=O)O)=C(COC(N)=O)CS[C@@H]21 [CEFOXITIN] | DILI positive (test set) | – |
| CC(C)(O/N=C(\C(=O)N[C@@H]1C(=O)N2C(C(=O)[O-])=C(C[n+]3ccccc3)CS[C@H]12)c1csc(N)n1)C(=O)O [CEFTAZIDIME] | DILI negative (test set) | – |
| Cc1ccc(-c2cc(C(F)(F)F)nn2-c2ccc(S(N)(=O)=O)cc2)cc1 [CELECOXIB] | – | DILI positive (test set) |
| O=C(Cc1cccs1)N[C@@H]1C(=O)N2C(C(=O)[O-])=C(C[n+]3ccccc3)CS[C@H]12 [CEPHALORIDINE] | DILI positive (test set) | – |
| CC(=O)OCC1=C(C(=O)[O-])N2C(=O)[C@@H](NC(=O)Cc3cccs3)[C@H]2SC1.[Na+] [CEPHALOTHIN SODIUM] | DILI positive (test set) | – |
| CC(=O)OCC1=C(C(=O)[O-])N2C(=O)[C@@H](NC(=O)CSc3ccncc3)[C@H]2SC1.[Na+] [CEPHAPIRIN SODIUM] | DILI negative (test set) | – |
| CC1=C(C(=O)O)N2C(=O)[C@@H](NC(=O)[C@H](N)C3=CCC=CC3)[C@H]2SC1 [CEPHRADINE] | DILI negative (test set) | – |
| COCc1c(C(C)C)nc(C(C)C)c(/C=C/[C@@H](O)C[C@@H](O)CC(=O)O)c1-c1ccc(F)cc1 [CERIVASTATIN] | DILI positive (test set) | – |
| C[C@H](CCC(=O)O)[C@H]1CC[C@H]2[C@@H]3[C@H](O)C[C@@H]4C[C@H](O)CC[C@]4(C)[C@H]3CC[C@]12C [CHENODIOL] | DILI positive (training set) | – |
| CCCCCCCCCCCCCCCC(=O)OC[C@@H](NC(=O)C(Cl)Cl)[C@H](O)c1ccc([N+](=O)[O-])cc1 [CHLORAMPHENICOL PALMITATE] | DILI positive (training set) | – |
| ClC(Cl)Cl [CHLOROFORM] | – | DILI positive (test set) |
| CCN(CC)CCCC(C)Nc1ccnc2cc(Cl)ccc12.O=P(O)(O)O.O=P(O)(O)O (stereo unspecified) [CHLOROQUINE PHOSPHATE] | DILI negative (test set) | – |
| CN(C)CCC(c1ccc(Cl)cc1)c1ccccn1.O=C(O)/C=C\C(=O)O (stereo unspecified) [CHLORPHENIRAMINE MALEATE] | DILI positive (training set) | – |
| CN(C)CCCN1c2ccccc2Sc2ccc(Cl)cc21 [CHLORPROMAZINE] | DILI positive (training set) | – |
| CCCNC(=O)NS(=O)(=O)c1ccc(Cl)cc1 [CHLORPROPAMIDE] | DILI positive (test set) | – |
| CN(C)[C@@H]1C(O)=C(C(N)=O)C(=O)[C@@]2(O)C(O)=C3C(=O)c4c(O)ccc(Cl)c4[C@@](C)(O)[C@H]3C[C@@H]12.Cl [CHLORTETRACYCLINE HYDROCHLORIDE] | DILI positive (training set) | – |
| Cc1cc(C2CCCCC2)n(O)c(=O)c1 [CICLOPIROX] | DILI negative (training set) | – |
| CC1(COc2ccc(CC3SC(=O)NC3=O)cc2)CCCCC1 (stereo unspecified) [CIGLITAZONE] | DILI positive (test set) | – |
| CN/C(=N/CCSCc1nc[nH]c1C)NC#N [CIMETIDINE] | – | DILI negative (training set) |
| O=C(O)c1cc(-c2ccccc2)nc2ccccc12 [CINCHOPHEN] | DILI positive (test set) | – |

| Structure (SMILES) | Hepatotoxicity | Hepatotoxicity (Liver) |
| --- | --- | --- |
| CC(C)(Oc1ccc(C2CC2(Cl)Cl)cc1)C(=O)O (stereo unspecified) [CIPROFIBRATE] | DILI positive (training set) | – |
| COc1cc(N)c(Cl)cc1C(=O)NC1CCN(CCCOc2ccc(F)cc2)CC1OC (stereo unspecified) [CISAPRIDE] | DILI negative (training set) | – |
| CN(C)CCCC1(c2ccc(F)cc2)OCc2cc(C#N)ccc21 (stereo unspecified) [CITALOPRAM] | DILI negative (training set) | – |
| C[N+](C)(C)CCOP(=O)(O)OP(=O)([O-])OC[C@H]1O[C@@H](n2ccc(N)nc2=O)[C@H](O)[C@@H]1O [CITICOLINE] | DILI negative (test set) | – |
| Nc1nc(Cl)nc2c1ncn2[C@H]1C[C@H](O)[C@@H](CO)O1 [CLADRIBINE] | DILI negative (training set) | – |
| CC[C@H]1OC(=O)[C@H](C)[C@@H](O[C@H]2C[C@@](C)(OC)[C@@H](O)[C@H](C)O2)[C@H](C)[C@@H](O[C@@H]2O[C@H](C)C[C@H](N(C)C)[C@H]2O)[C@](C)(OC)C[C@@H](C)C(=O)[C@H](C)[C@@H](O)[C@]1(C)O [CLARITHROMYCIN] | DILI positive (test set) | – |
| CN1CCC[C@@H]1CCO[C@](C)(c1ccccc1)c1ccc(Cl)cc1.O=C(O)/C=C/C(=O)O [CLEMASTINE FUMARATE] | DILI negative (test set) | – |
| NC1CCN(c2c(F)cc3c(=O)c(C(=O)O)cn(C4CC4)c3c2Cl)C1 (stereo unspecified) [CLINAFLOXACIN] | DILI negative (training set) | – |
| CCC[C@@H]1C[C@@H](C(=O)N[C@@H]([C@H]2O[C@H](SC)[C@H](O)[C@@H](O)[C@H]2O)[C@H](C)Cl)N(C)C1.Cl [CLINDAMYCIN HYDROCHLORIDE] | DILI positive (test set) | – |
| CCOC(=O)C(C)(C)Oc1ccc(Cl)cc1 [CLOFIBRATE] | DILI positive (test set) | – |
| CCN(CC)CCOc1ccc(C(=C(Cl)c2ccccc2)c2ccccc2)cc1 [CLOMIPHENE] | DILI positive (training set) | – |
| CN(C)CCCN1c2ccccc2CCc2ccc(Cl)cc21 [CLOMIPRAMINE] | DILI positive (training set) | – |
| Cl.Clc1cccc(Cl)c1NC1=NCCN1 [CLONIDINE HYDROCHLORIDE] | – | DILI positive (training set) |
| Clc1ccccc1C(c1ccccc1)(c1ccccc1)n1ccnc1 [CLOTRIMAZOLE] | DILI negative (training set) | – |
| Cc1onc(-c2ccccc2Cl)c1C(=O)N[C@@H]1C(=O)N2[C@@H]1SC(C)(C)[C@@H]2C(=O)[O-].O.[Na+] [CLOXACILLIN SODIUM] | DILI positive (test set) | – |
| CN1CCN(C2=Nc3cc(Cl)ccc3Nc3ccccc32)CC1 [CLOZAPINE] | DILI positive (training set) | – |
| COc1cc2c(c(OC)c1OC)-c1ccc(OC)c(=O)cc1[C@@H](NC(C)=O)CC2 [COLCHICINE] | DILI negative (training set) | – |
| O=C(O)c1cc(=O)c2c(OCC(O)COc3cccc4oc(C(=O)O)cc(=O)c34)cccc2o1 [CROMOLYN] | DILI negative (training set) | – |
| CN1CCN(C(c2ccccc2)c2ccccc2)CC1 [CYCLIZINE] | DILI positive (test set) | – |
| O=P1(N(CCCl)CCCl)NCCCO1 (stereo unspecified) [CYCLOPHOSPHAMIDE ANHYDROUS] | – | DILI positive (training set) |
| CN1CCC(=C2c3ccccc3C=Cc3ccccc32)CC1.Cl [CYPROHEPTADINE HYDROCHLORIDE] | DILI positive (training set) | – |

| Structure (SMILES) | Hepatotoxicity | Hepatotoxicity (Liver) |
| --- | --- | --- |
| CC(=O)O[C@]1(C(C)=O)CC[C@H]2[C@@H]3C=C(Cl)C4=CC(=O)[C@@H]5C[C@@H]5[C@]4(C)[C@H]3CC[C@@]21C [CYPROTERONE ACETATE] | DILI positive (training set) | – |
| C=C(C)[C@H]1CC=C(C)CC1 [D-LIMONENE] | DILI positive (test set) | – |
| CN(C)/N=N/c1[nH]cnc1C(N)=O [DACARBAZINE] | DILI positive (test set) | – |
| Cc1c2oc3c(C)ccc(C(=O)N[C@@H]4C(=O)N[C@H](C(C)C)C(=O)N5CCC[C@H]5C(=O)N(C)CC(=O)N(C)[C@@H](C(C)C)C(=O)O[C@@H]4C)c3nc-2c(C(=O)N[C@@H]2C(=O)N[C@H](C(C)C)C(=O)N3CCC[C@H]3C(=O)N(C)CC(=O)N(C)[C@@H](C(C)C)C(=O)O[C@@H]2C)c(N)c1=O [DACTINOMYCIN] (I: T[dV]P[Sar][NMeV] / II: T[dV]P[Sar][NMeV]; ester I:1-I:C, II:1-II:C; linker I:N-II:N via Actinocin(9to1)) | DILI positive (test set) | – |
| C#C[C@]1(O)CC[C@H]2[C@@H]3CCC4=Cc5oncc5C[C@]4(C)[C@H]3CC[C@@]21C [DANAZOL] | DILI positive (training set) | – |
| O=C1CN(/N=C/c2ccc(-c3ccc([N+](=O)[O-])cc3)o2)C(=O)[N-]1.[Na+] [DANTROLENE SODIUM] | DILI positive (training set) | – |
| Nc1ccc(S(=O)(=O)c2ccc(N)cc2)cc1 [DAPSONE] | – | DILI positive (training set) |
| CC(=O)N(O)CCCCCNC(=O)CCC(=O)N(O)CCCCCNC(=O)CCC(=O)N(O)CCCCCN.CS(=O)(=O)O [DEFEROXAMINE MESYLATE] | DILI positive (training set) | – |
| CN(C)[C@@H]1C(O)=C(C(N)=O)C(=O)[C@@]2(O)C(O)=C3C(=O)c4c(O)ccc(Cl)c4[C@@H](O)[C@H]3C[C@@H]12.Cl [DEMECLOCYCLINE HYDROCHLORIDE] | DILI positive (training set) | – |
| CNCCCN1c2ccccc2CCc2ccccc21 [DESIPRAMINE] | – | DILI negative (training set) |
| C[C@@H]1C[C@H]2[C@@H]3CCC4=CC(=O)C=C[C@]4(C)[C@@]3(F)[C@@H](O)C[C@]2(C)[C@@]1(O)C(=O)CO [DEXAMETHASONE] | DILI negative (training set) | – |
| C[C@H](N)Cc1ccccc1.C[C@H](N)Cc1ccccc1.O=S(=O)(O)O [DEXTROAMPHETAMINE SULFATE] | DILI positive (test set) | – |
| Br.COc1ccc2c(c1)[C@]13CCCC[C@@H]1[C@H](C2)N(C)CC3.O [DEXTROMETHORPHAN HYDROBROMIDE] | DILI negative (training set) | – |
| Cc1onc(-c2c(Cl)cccc2Cl)c1C(=O)N[C@@H]1C(=O)N2[C@@H]1SC(C)(C)[C@@H]2C(=O)[O-].O.[Na+] [DICLOXACILLIN SODIUM] | DILI positive (test set) | – |
| O=c1[nH]cnc2c1ncn2[C@H]1CC[C@@H](CO)O1 [DIDANOSINE] | DILI positive (training set) | – |
| CCN(CC)C(=O)N1CCN(C)CC1 [DIETHYLCARBAMAZINE] | DILI positive (training set) | – |
| O=C(O)c1cc(-c2ccc(F)cc2F)ccc1O [DIFLUNISAL] | – | DILI positive (training set) |
| C[C@H]1O[C@@H](O[C@H]2[C@@H](O)C[C@H](O[C@H]3[C@@H](O)C[C@H](O[C@H]4CC[C@@]5(C)[C@H](CC[C@@H]6[C@@H]5C[C@@H](O)[C@]5(C)[C@@H](C7=CC(=O)OC7)CC[C@]65O)C4)O[C@@H]3C)O[C@@H]2C)C[C@H](O)[C@@H]1O [DIGOXIN] | DILI negative (training set) | – |
| COc1ccc([C@@H]2Sc3ccccc3N(CCN(C)C)C(=O)[C@@H]2OC(C)=O)cc1.Cl [DILTIAZEM HYDROCHLORIDE] | DILI negative (training set) | – |
